Reference: patent US11400058B2, “Intravenous formulations of coenzyme Q10 (CoQ10) and methods of use thereof” (Berg LLC, priority 2010, dated 2022)
Marks after values point to notes of the source that are not given here.

Assay: 4-week repeat-dose toxicology study in rats with 2-week recovery (Study 20000328)
Conditions: for Died or Sacrificed Moribund: animals of 15
[1] = 62.5 mg/kg F, end of dosing, animals of 10
[2] = 62.5 mg/kg F, end of recovery, animals of 5
[3] = 62.5 mg/kg M, end of dosing, animals of 10

COC1=C(OC)C(=O)C(C/C=C(\C)CC/C=C(\C)CC/C=C(\C)CC/C=C(\C)CC/C=C(\C)CC/C=C(\C)CC/C=C(\C)CC/C=C(\C)CC/C=C(\C)CCC=C(C)C)=C(C)C1=O [CoQ10, Coenzyme Q10]
Died or Sacrificed Moribund (62.5 mg/kg F): 0 | ALT (62.5 mg/kg F, end of dosing): 19 IU/L | APPT (62.5 mg/kg F, end of dosing): 15.1 s | AST (62.5 mg/kg F, end of dosing): 67* IU/L | Body Weight, percent difference from controls (62.5 mg/kg F, end of dosing): −1.7% | Eosinophils (62.5 mg/kg F, end of dosing): 0.09 10^3/cmm | Erythrocytes (62.5 mg/kg F, end of dosing): 7.77* 10^6/cmm | Food Consumption, percent difference from controls (62.5 mg/kg F, end of dosing): −4.0% | GGT (62.5 mg/kg F, end of dosing): 0.42 IU/L | Hematocrit (62.5 mg/kg F, end of dosing): 42.4* % | Hemoglobin (62.5 mg/kg F, end of dosing): 14.7* g/dL | Leukocytes (62.5 mg/kg F, end of dosing): 8.33 10^3/cmm | Liver weight (absolute), percent difference from controls (62.5 mg/kg F, end of dosing): −6.1% | Lymphocytes (62.5 mg/kg F, end of dosing): 6.79 10^3/cmm | Neutrophils (62.5 mg/kg F, end of dosing): 1.06 10^3/cmm | Spleen weight (absolute), percent difference from controls (62.5 mg/kg F, end of dosing): −48.2* % | Bone Marrow, Sternum Hyperplasia [1]: 0 | Bone Marrow, Sternum Hyperplasia, Mild [1]: 0 | Bone Marrow, Sternum Hyperplasia, Minimal [1]: 0 | Gross Pathology: Enlarged Pancreatic Lymph Nodes [1]: 0 | Gross Pathology: Pale Adrenal [1]: 0 | Gross Pathology: Pale Liver [1]: 7 | Gross Pathology: Pale Lymph Nodes [1]: 1 | Gross Pathology: Pale Ovaries [1]: 0 | Gross Pathology: Pale Pituitary [1]: 0 | Gross Pathology: Pale SQ Skin [1]: 0 | Liver Focal Necrosis [1]: 1 | Liver Focal Necrosis, Minimal [1]: 1 | Liver Histiocytic Infiltration [1]: 7 | Liver Histiocytic Infiltration, Mild [1]: 0 | Liver Histiocytic Infiltration, Minimal [1]: 7 | Liver Histiocytic Infiltration, Moderate [1]: 0 | Liver Vacuolation [1]: 7 | Liver Vacuolation, Mild [1]: 0 | Liver Vacuolation, Minimal [1]: 7 | Lymph Node, Man. Histiocytic Infiltration [1]: 4 | Lymph Node, Man. Histiocytic Infiltration, Mild [1]: 0 | Lymph Node, Man. Histiocytic Infiltration, Minimal [1]: 4 | Lymph Node, Man. Histiocytic Infiltration, Moderate [1]: 0 | Lymph Node, Mes. Histiocytic Infiltration [1]: 9 | Lymph Node, Mes. Histiocytic Infiltration, Mild [1]: 2 | Lymph Node, Mes. Histiocytic Infiltration, Minimal [1]: 7 | Lymph Node, Mes. Histiocytic Infiltration, Moderate [1]: 0 | Ovary Histiocytic Infiltration [1]: 0 | Ovary Histiocytic Infiltration, Mild [1]: 0 | Ovary Histiocytic Infiltration, Minimal [1]: 0 | Ovary Histiocytic Infiltration, Moderate [1]: 0 | Skin, Dermis Histiocytic Infiltration [1]: 0 | Skin, Dermis Histiocytic Infiltration, Marked [1]: 0 | Skin, Dermis Histiocytic Infiltration, Mild [1]: 0 | Skin, Dermis Histiocytic Infiltration, Moderate [1]: 0 | Skin, SQ Histiocytic Infiltration [1]: 0 | Skin, SQ Histiocytic Infiltration, Mild [1]: 0 | Spleen Histiocytic Infiltration [1]: 4 | Spleen Histiocytic Infiltration, Marked [1]: 0 | Spleen Histiocytic Infiltration, Mild [1]: 4 | Spleen Histiocytic Infiltration, Moderate [1]: 0 | ALT (62.5 mg/kg F, end of recovery): 19 IU/L | APPT (62.5 mg/kg F, end of recovery): 14.4 s | AST (62.5 mg/kg F, end of recovery): 83 IU/L | Body Weight, percent difference from controls (62.5 mg/kg F, end of recovery): −0.9% | Food Consumption, percent difference from controls (62.5 mg/kg F, end of recovery): −7.9% | GGT (62.5 mg/kg F, end of recovery): 0.12 IU/L | Liver weight (absolute), percent difference from controls (62.5 mg/kg F, end of recovery): +4.6% | Spleen weight (absolute), percent difference from controls (62.5 mg/kg F, end of recovery): +0.5% | Adrenal Gland Vacuolation [2]: 3 | Adrenal Gland Vacuolation, Marked [2]: 0 | Adrenal Gland Vacuolation, Mild [2]: 0 | Adrenal Gland Vacuolation, Minimal [2]: 3 | Adrenal Gland Vacuolation, Moderate [2]: 0 | Gross Pathology: Enlarged Spleen [2]: 0 | Gross Pathology: Pale Iliac Lymph Node [2]: 2 | Gross Pathology: Pale Liver [2]: 3 | Gross Pathology: Pale Ovaries [2]: 0 | Gross Pathology: Pale Pancreatic Lymph Node [2]: 1 | Liver Focal Necrosis [2]: 0 | Liver Focal Necrosis, Mild [2]: 0 | Liver Focal Necrosis, Minimal [2]: 0 | Liver Histiocytic Infiltration [2]: 5 | Liver Histiocytic Infiltration, Mild [2]: 2 | Liver Histiocytic Infiltration, Minimal [2]: 3 | Liver Histiocytic Infiltration, Moderate [2]: 0 | Liver Multifocal Necrosis [2]: 0 | Liver Multifocal Necrosis, Mild [2]: 0 | Liver Multifocal Necrosis, Moderate [2]: 0 | Liver Vacuolation [2]: 5 | Liver Vacuolation, Mild [2]: 2 | Liver Vacuolation, Minimal [2]: 2 | Liver Vacuolation, Moderate [2]: 1 | Lymph Node, Man. Histiocytic Infiltration [2]: 2 | Lymph Node, Man. Histiocytic Infiltration, Mild [2]: 0 | Lymph Node, Man. Histiocytic Infiltration, Minimal [2]: 2 | Lymph Node, Man. Histiocytic Infiltration, Moderate [2]: 0 | Lymph Node, Mes. Histiocytic Infiltration [2]: 4 | Lymph Node, Mes. Histiocytic Infiltration, Mild [2]: 0 | Lymph Node, Mes. Histiocytic Infiltration, Minimal [2]: 4 | Ovary Histiocytic Infiltration [2]: 4 | Ovary Histiocytic Infiltration, Mild [2]: 0 | Ovary Histiocytic Infiltration, Minimal [2]: 4 | Ovary Histiocytic Infiltration, Moderate [2]: 0 | Spleen Histiocytic Infiltration [2]: 3 | Spleen Histiocytic Infiltration, Marked [2]: 0 | Spleen Histiocytic Infiltration, Mild [2]: 1 | Spleen Histiocytic Infiltration, Minimal [2]: 2 | Spleen Histiocytic Infiltration, Moderate [2]: 0 | Died or Sacrificed Moribund (62.5 mg/kg M): 0 | ALT (62.5 mg/kg M, end of dosing): 22 IU/L | APPT (62.5 mg/kg M, end of dosing): 17.6 s | AST (62.5 mg/kg M, end of dosing): 74 IU/L | Body Weight, percent difference from controls (62.5 mg/kg M, end of dosing): −0.5% | Eosinophils (62.5 mg/kg M, end of dosing): 0.09* 10^3/cmm | Erythrocytes (62.5 mg/kg M, end of dosing): 8.14* 10^6/cmm | Food Consumption, percent difference from controls (62.5 mg/kg M, end of dosing): +2.5% | GGT (62.5 mg/kg M, end of dosing): 0.00 IU/L | Hematocrit (62.5 mg/kg M, end of dosing): 44.3% | Hemoglobin (62.5 mg/kg M, end of dosing): 15.1* g/dL | Leukocytes (62.5 mg/kg M, end of dosing): 8.56* 10^3/cmm | Liver weight (absolute), percent difference from controls (62.5 mg/kg M, end of dosing): −5.5% | Lymphocytes (62.5 mg/kg M, end of dosing): 7.02* 10^3/cmm | Neutrophils (62.5 mg/kg M, end of dosing): 1.06 10^3/cmm | Spleen weight (absolute), percent difference from controls (62.5 mg/kg M, end of dosing): −57.3* % | Bone Marrow, Sternum Hyperplasia [3]: 0 | Bone Marrow, Sternum Hyperplasia, Mild [3]: 0 | Bone Marrow, Sternum Hyperplasia, Minimal [3]: 0 | Gross Pathology: Enlarged Pancreatic Lymph Nodes [3]: 0 | Gross Pathology: Pale Adrenal [3]: 0 | Gross Pathology: Pale Liver [3]: 9 | Gross Pathology: Pale Lymph Nodes [3]: 0 | Gross Pathology: Pale Pituitary [3]: 0 | Gross Pathology: Pale SQ Skin [3]: 1 | Liver Focal Necrosis [3]: 0 | Liver Focal Necrosis, Minimal [3]: 0 | Liver Histiocytic Infiltration [3]: 2 | Liver Histiocytic Infiltration, Mild [3]: 1 | Liver Histiocytic Infiltration, Minimal [3]: 1 | Liver Histiocytic Infiltration, Moderate [3]: 0 | Liver Vacuolation [3]: 2 | Liver Vacuolation, Mild [3]: 0 | Liver Vacuolation, Minimal [3]: 2 | Lymph Node, Man. Histiocytic Infiltration [3]: 6 | Lymph Node, Man. Histiocytic Infiltration, Mild [3]: 1 | Lymph Node, Man. Histiocytic Infiltration, Minimal [3]: 4 | Lymph Node, Man. Histiocytic Infiltration, Moderate [3]: 1 | Lymph Node, Mes. Histiocytic Infiltration [3]: 9 | Lymph Node, Mes. Histiocytic Infiltration, Mild [3]: 4 | Lymph Node, Mes. Histiocytic Infiltration, Minimal [3]: 5 | Lymph Node, Mes. Histiocytic Infiltration, Moderate [3]: 0 | Skin, Dermis Histiocytic Infiltration [3]: 0 | Skin, Dermis Histiocytic Infiltration, Marked [3]: 0 | Skin, Dermis Histiocytic Infiltration, Mild [3]: 0 | Skin, Dermis Histiocytic Infiltration, Moderate [3]: 0 | Skin, SQ Histiocytic Infiltration [3]: 0 | Skin, SQ Histiocytic Infiltration, Mild [3]: 0 | Spleen Histiocytic Infiltration [3]: 1 | Spleen Histiocytic Infiltration, Marked [3]: 0
